Assay results: article PMC7481701 (Royal Society Open Science, 2020)

What was measured:
[1] = biological target: T1, ChTL activity of the purified human 20S proteasome (Homo sapiens, UniProt P28074); assay: Purified 20S proteasome activity assay, ChTL activity (Suc-LLVY-AMC); format: biochemical; settings: for inhibitory activity against the 20S proteasome (in words): ChTL activity, figure 2b
T1 construct: The human erythrocyte 20S proteasome was obtained from Boston Biochem; purchased Boston Biochem; host or cells: human erythrocytes
Procedure: For the proteasome inhibition assays, the peptide-7-amino-4-methylcoumarin (AMC) substrates (25 µM Suc-LLVY-AMC) and inhibitors were added to assay solutions. The assay buffer had the following composition: 25 mM HEPES, 0.5 mM EDTA, 0.03% SDS (pH 8.0). Human erythrocyte 20S proteasome (100 ng) was added to the assay buffer containing substrates and inhibitors at a final volume of 100 µl. After incubation at 37°C for 1 h, the fluorescence emission spectrum at 450 nm (λex, 365 nm) was measured by using a fluorescence microplate reader. The inhibition against PGPH activity of the 20S proteasome was determined as described above except that Z-LLE-AMC was used as the substrate. For the assay of inhibition against the trypsin-like activity of complex 2, the SDS was omitted from the assay buffer and Boc-LRR-AMC was used as the substrate. The assay of inhibition against the trypsin-like activity of complexes 1 and 3 was carried out by the Screening Committee of Anticancer Drugs (Cancer Chemotherapy Center, Japanese Foundation for Cancer Research).
[picture] For the proteasome inhibition assays, the peptide-AMC substrates (25 µM Suc-LLVY-AMC) and inhibitors were added to assay solutions. The assay buffer had the following composition: 25 mM HEPES, 0.5 mM EDTA, 0.03% SDS (pH 8.0). Human erythrocyte 20S proteasome (100 ng) was added to the assay buffer containing substrates and inhibitors at a final volume of 100 µL. After incubation at 37°C for 1 h, the fluorescence emission spectrum at 450 nm (λex, 365 nm) was measured by using a fluorescence microplate reader.

[2] = biological target: T2, ChTL activity of the 20S proteasome from cell lysates (colon26) (Mus musculus, UniProt O55234); assay: Inhibition against chymotrypsin-like activity in whole-cell lysates; format: biochemical; settings: whole-cell lysate, figure S3
T2 construct: endogenous in cells; host or cells: colon26 whole-cell lysate
Procedure: Cultures of colon26 were grown at 37°C in RPMI1640 supplemented with 10% fetal bovine serum. Whole-cell lysates were prepared according to the method in the literature.
For the determination of inhibitory activity in whole-cell lysates, peptide-AMC substrates (50 µM Suc-LLVY-AMC), inhibitors and the whole-cell lysate (15 µg) were added to the assay solutions. The following assay buffer was used: 25 mM HEPES, 0.5 mM EDTA, 0.03% SDS (pH 8.0). After incubation at 37°C for 4 h, the fluorescence emission was measured at 450 nm (λex = 365 nm) by using a fluorescence microplate reader.
For the determination of inhibitory activity in the whole cell lysate, peptide-AMC substrates (50 µM Suc-LLVY-AMC), inhibitors, and the whole cell lysate (15 µg) were added to the assay solutions. The following assay buffer was used: 25 mM HEPES, 0.5 mM EDTA, 0.03% SDS (pH 8.0). After incubation at 37 °C for 4 h, the fluorescence emission was measured at 450 nm (λex = 365 nm) by using a fluorescence microplate reader.

[3] = purified 20S proteasome, figure S2

SMILES | inhibitory activity against the 20S proteasome (in words) [1, 3] | remaining activity at 10 µM ([1]; at 10 µM, purified 20S proteasome, figure S2, read-out: residual activity of ChTL) [%] | IC50 ([1]; purified human erythrocyte 20S proteasome 100 ng, 25 µM Suc-LLVY-AMC, 37°C 1 h, mean ± s.d. (n = 3)) [µM] | inhibition in the cell-free system (in words) [2]
NCCNCc1c2ccccc2cc2ccccc12 [N-9-anthracenylmethyl-1,2-ethanediamine, reference compound] | weak inhibitory activity | 43 | ~10 | no inhibition
NCCN.[Cl-].[Cl-].[Pt+2].c1ccncc1.c1ccncc1 [Pt(py)2(ethylenediamine), (ethylenediamine)bispyridine platinum(II) chloride, reference compound] | no inhibitory activity | – | – | –
